According to patent publication US7728174B2, “Continuous hydrogenation processes for the preparation of xylylenediamines” (BASF SE, priority 2005, dated 2010):

Assay: solubility of IPN in ammonia, meta-xylylenediamine and their mixtures
Assay type: physicochemical

N#Cc1cccc(C#N)c1 [IPN, 1,3-dicyanobenzene]
solubility of IPN in the mixture (Example 1 mixture: 178 g/h circulation stream [13] and 94 g/h fresh ammonia, at 60° C.): about 30 % by weight
solubility of IPN in the mixture (Example 2 mixture: 320 g/h circulation stream [13] and 40 g/h fresh ammonia, at 60° C.): about 25 % by weight
solubility of IPN (in MXDA, at 70° C.): approx. 20 % by weight
solubility of IPN (in NH3, at 60° C.): approx. 44 % by weight
solubility of IPN (in a mixture of approximately equal parts by mass of meta-xylylenediamine and liquid ammonia, at 60° C.): approx. 30 % by weight
solubility of IPN (in meta-xylylenediamine, at 60° C.): approx. 15 % by weight
